{"source": "patent US20120101163A1", "about": "“COMPOSITION FOR INHIBITING CANCER METASTASIS” (TAIPEI MEDICAL UNIVERSITY, priority 2010, published 2012)", "key": {"HT 1080 cells": {"tested_on": "HT 1080 cells", "test": "Wound healing assay and colony dispersion assay (cell migration)", "assay_type": "cell-based, Human", "procedure": "8. Wound Healing Assay (Park et al., 2005; Hwang et al., 2006)\nCells with appropriate cell numbers were cultured in a 24 well culturing plate for 12 hours. After the cells were attached to each bottom of each well of the plate and formed a monolayer, the medium in the well was removed. The middle of each bottom of each well having the monolayer thereon was scraped by a 200 μl tip to form a scratched line with a width of 1 mm. The cells in each well were washed with a PBS buffer twice, and fresh mediums with different concentrations of a test drug were added to the wells, respectively and cultured for 18 hours. After that, the upper medium in each well was removed. The cells were washed with a PBS buffer twice, fixed with 100% methanol and stained with a toluidine blue. The calculation for the migration rate of the cells was:\n9. Colony Dispersion Assay (Hwang et al., 2006)\nCells with appropriate cell numbers were cultured in a 24 well culturing plate for 12 hours. After the cells were attached to each bottom of each well of the plate and formed a monolayer, the medium in the well was removed. Fresh mediums with different concentrations of a test drug were added to the wells, respectively and cultured for 3 days. After that, the upper medium in each well was removed. Then, the cells were washed with a PBS buffer twice, fixed with 100% methanol and stained with a toluidine blue."}, "[1]": {"tested_on": "human umbilical vein endothelial cells", "test": "Tube formation assay (angiogenesis)", "assay_type": "cell-based", "procedure": "13. Tube Formation Assay (Malinda et al., 1999)\n1μ-Slide Angiogenesis ibiTreat chambers were coated with 10 μl Matrigel™ Mixtrix and placed in an incubator at 37° C. for 1 hour. 40 μl of a 3×10^5 cells/ml cell suspension was added to each chamber and left still for 20 minutes to let the cells attach to the chamber. After that, the medium in each chamber was removed. Fresh mediums with different concentrations of a test drug were added to the chambers, respectively and placed in an incubator at 37° C. After 18 hours, the angiogenesis appearance in each chamber was observed and photographed for recording."}, "[2]": {"tested_on": "matrix metalloproteinase-2", "test": "Western blot analysis, MMP-2 protein expression in HT 1080 cells", "assay_type": "cell-based, Human", "procedure": "HT 1080 cells with appropriate cell numbers were cultured in 60 mm culturing plates for 12 hours, respectively. After the cells were attached onto the bottom of the plate and formed a monolayer, the medium in the plate was removed. Fresh serum-free mediums with different concentrations of a test drug were added to the plates, respectively, and 100 nM PMA was added to each plate to induce the cells to express great quantities of matrix metalloproteinase-2 and matrix metalloproteinase-9, and the plates were placed in a temperature of 37° C. for 24 hours. A quantitatively cultured supernatant in each plate was centrifuged or protein was extracted from cells in each plate to be quantitated, and then an SDS-sample buffer containing 2-ME was added therein to form a mixture. The mixture was injected into a 10% SDS-polyacrylamide gel […] and then electrophoresed. After electrophoresis was completed, the proteins in the gel were transferred to a PVDF membrane. The PVDF membrane was equilibrated with gelatin-NET at room temperature for 30 minutes. […]"}}, "data": [{"smiles": "NC(CCC(=O)NO)C(=O)O", "note": "[DH, L-Glutamic acid γ-hydroxamate]", "values": [{"measurement": "IC50", "setting": "HT 1080 cells; Homo sapiens, HT-1080, 0.4, 1.2, 2 and 2.8 mM, 18 hours", "value": 1750, "unit": "µM"}, {"measurement": "inhibition rate to cancer cell migration", "setting": "HT 1080 cells; about 0.1-3 mM, stated as embodiment", "value": "20-85%"}, {"measurement": "inhibition rate to angiogenesis", "setting": "[1]; about 0.1-1.5 mM, stated as embodiment", "value": "10-90%"}, {"measurement": "angiogenesis compared with the control group", "setting": "[1]; increasing concentrations", "value": "significantly inhibited"}, {"measurement": "protein expression amount of matrix metalloproteinase-2 secreted out of and left in HT 1080 cells", "setting": "[2]; 0.4, 0.8, 1.2, and 1.6, 24 hours, Western blotting", "value": "all decreased"}, {"measurement": "inhibition rate to the protein expression amount of metalloproteinase-2 of a cancer cell", "setting": "[2]; about 0.1-2 mM, stated as embodiment, 'and/or' MMP-9", "value": "40-90%"}]}]}
